# Marks after values point to notes of the source that are not given here.
# Tests used:
# Assay type in all cases: physicochemical
# Conditions in all cases: mean ± DE of three replicate experiments
# [1] = Antioxidant capacity (ORAC)
# Source text: (§1) We confirmed the removal activity of the polyphenol rich extract from microfiltered blackberry juice using different methods (Chart 11), and this activity was compared with the flavonoid remover of quercetin radicals.
# NO removal assay = test: NO removal assay
# Protocol: as §1
# Four hours of pretreatment with the blackberry extract reduced NO production in a dose dependent manner only when the LPS+IFNγ was incubated with the extract (no wash). If the extract is removed before the addition of LPS+IFNγ (with rinsing), inhibition of NO production was seen only in the highest concentration tested.
# DPPH radical removal = test: DPPH radical removal
# Source text: as §1
smiles,measurement,setting,value
O=c1c(O)c(-c2ccc(O)c(O)c2)oc2cc(O)cc(O)c12 [Quercetin],ORAC,[1],2067 ± 81^b μM TE/g
same,No Removal IC50,NO removal assay,6.57 ± 0.8^b μg/mL
same,DPPH IC50,DPPH radical removal,2.17 ± 0.08^b μg/mL
